Test results: patent publication US20200337310A1, “Herbicidal Combinations” (UPL LTD, priority 2018, published 2020)

Tests used:
Experiment in all cases: Field trial, weed control burn down symptoms at 5 DAT
Settings in all cases: field trial India, glufosinate ammonium 400, carfentrazone 10, imazethapyr 100 gm/ha
[1] = system: Cyprus spp
[2] = system: Trianthema monogyna
[3] = system: Dinebra retroflexa
[4] = system: Parthenium hysterophorus

Row | Compound | % Weed control Burn Down Symptoms Generation, Cyprus spp, Actual [1] [%] | % Weed control Burn Down Symptoms Generation, Trianthema monogyna, Actual [2] [%] | % Weed control Burn Down Symptoms Generation, Dinebra retroflexa, Actual [3] [%] | % Weed control Burn Down Symptoms Generation, Parthenium hysterophorus, Actual [4] [%]
1 | CCc1cnc(C2=NC(C)(C(C)C)C(=O)N2)c(C(=O)O)c1 (racemic) [Imazethapyr, 5-ethyl-2-[(RS)-4-isopropyl-4-methyl-5-oxo-2-imidazolin-2-yl]nicotinic acid] | 00 | 10 | 0 | 5
2 | CP(=O)(O)CCC(N)C(=O)O (racemic) [Glufosinate ammonium, (2RS)-2-amino-4-[hydroxy(methyl)phosphinoyl]butyric acid] | 5 | 25 | 15 | 30
3 | CCOC(=O)C(Cl)Cc1cc(-n2nc(C)n(C(F)F)c2=O)c(F)cc1Cl (racemic) [Carfentrazone, ethyl (RS)-2-chloro-3-{2-chloro-5-[4-(difluoromethyl)-4,5-dihydro-3-methyl-5-oxo-1H-1,2,4-triazol-1-yl]-4-fluorophenyl}propionate] | 60 | 70 | 0 | 5
